MIC and IC50 data for 7 molecules are collected here from ChEMBL document CHEMBL1154575, “Bioactive 12-oleanene triterpene and secotriterpene acids from Maytenus undata” (J Nat Prod, 2000).

Structures are written as SMILES. Values after ≈ are worked out from the molar mass of the structure shown. Where only a bound is given, the exact number is not on record here.

One data set concerns Pseudomonas aeruginosa. As to the kind of experiment: Antibacterial activity against Pseudomonas aeruginosa ATCC 15442 after 48 hrs by agar dilution method. Type of data set: functional. The following applies: ATCC 15442, 48 h.
Data set [1] concerns Staphylococcus aureus. As to the kind of experiment: Antibacterial activity against Staphylococcus aureus ATCC 6535 after 48 hrs by agar dilution method. Type of data set: functional. The following applies: ATCC 6535, 48 h. On the technique in general: Agar dilution tests growth on a series of plates holding different concentrations.
Data set [2] has as its system Staphylococcus aureus. The data set can be described thus: Antibacterial activity against methicillin-resistant Staphylococcus aureus ATCC 33591 after 48 hrs by agar dilution method. Type of data set: functional. As to conditions: ATCC 33591, 48 h.
Data set [3] is described as follows: Antiinflammatory activity in rat neonatal brain microglia cells assessed as effect on phorbol-12-myristate-13-acetate-stimulated superoxide release. Type of data set: functional, cell-based.
Data set [4] in a line: Antiinflammatory activity in rat neonatal brain microglia cells assessed as effect on phorbol-12-myristate-13-acetate-stimulated thromboxane B2 release. Type of data set: functional, cell-based.
Data set [5] is described as follows: Toxicity against rat neonatal brain microglia cells assessed as phorbol-12-myristate-13-acetate-stimulated LDH release. Type of data set: cell-based. (In general: Release of lactate dehydrogenase indicates damage to the cell membrane.)

On to `CCO[C@@H]1C=C2[C@@H]3C[C@@](C)(C(=O)O)CC[C@]3(C)CC[C@@]2(C)[C@]2(C)CC[C@H]3C(C)(C)C(=O)CC[C@]3(C)[C@@H]12`, for which the MIC in the data set on Pseudomonas aeruginosa was 12.5 µg/mL (≈ 25.1 µM); against Staphylococcus aureus [1], > 12.5 µg/mL; with Staphylococcus aureus [2] it was 50 µg/mL (≈ 100 µM).
As for `CC1(C)C(=O)CC[C@]2(C)C3=CC=C4[C@@H]5C[C@@](C)(C(=O)O)CC[C@]5(C)CC[C@@]4(C)[C@]3(C)CC[C@@H]12`, the MIC was 6.25 µg/mL (≈ 13.8 µM) against Pseudomonas aeruginosa, > 50 µg/mL with Staphylococcus aureus [1] and > 50 µg/mL against Staphylococcus aureus [2]. Also, the IC50 in data set [3] is > 100 µM; in data set [4], > 100 µM; in data set [5] it was > 30 µM.
For `C=C(C)[C@@H]1CC[C@]2(C)[C@H](CC=C3[C@@H]4C[C@@](C)(C(=O)O)CC[C@]4(C)CC[C@]32C)[C@@]1(C)CCC(=O)O` [KOETJAPIC ACID], the results for the MIC against Pseudomonas aeruginosa, with Staphylococcus aureus [1] and with Staphylococcus aureus [2] were 6.25 µg/mL (≈ 13.3 µM), > 6.25 µg/mL and 12.5 µg/mL (≈ 26.6 µM), respectively.
With `CC1(C)C(=O)CC[C@]2(C)[C@H]3C(=O)C=C4[C@@H]5C[C@@](C)(C(=O)O)CC[C@]5(C)CC[C@@]4(C)[C@]3(C)CC[C@@H]12`, the IC50 was 6.7 µM in data set [3], 2.3 µM in data set [4] and > 10 µM in data set [5].
Consider `CO[C@@H]1C=C2[C@@H]3C[C@@](C)(C(=O)O)CC[C@]3(C)CC[C@@]2(C)[C@]2(C)CC[C@H]3C(C)(C)C(=O)CC[C@]3(C)[C@@H]12`, for which the MIC was 10 µg/mL (≈ 20.6 µM) in the data set with Pseudomonas aeruginosa, > 10 µg/mL against Staphylococcus aureus [1] and > 10 µg/mL against Staphylococcus aureus [2]. Besides, the half-maximal inhibitory concentration (IC50) is 15 µM in data set [3], 5 µM in data set [4] and > 30 µM in data set [5].
On to `CC1(C)C(=O)CC[C@]2(C)[C@H]3[C@H](O)C=C4[C@@H]5C[C@@](C)(C(=O)O)CC[C@]5(C)CC[C@@]4(C)[C@]3(C)CC[C@@H]12`, for which the MIC in the data set on Pseudomonas aeruginosa is > 6.26 µg/mL; in the data set with Staphylococcus aureus [1], > 6.25 µg/mL; in the data set with Staphylococcus aureus [2] it was > 6.25 µg/mL. Moreover, the half-maximal inhibitory concentration (IC50) was 3.2 µM in data set [3], 3.6 µM in data set [4] and > 1 µM in data set [5].
For `C=C(C)[C@@H]1CC[C@]2(C)[C@H](CC=C3[C@@H]4C[C@](C)(C(=O)O)CC[C@]4(C)CC[C@]32C)[C@@]1(C)CCC(=O)O`, the MIC with Pseudomonas aeruginosa is 6.25 µg/mL (≈ 13.3 µM); against Staphylococcus aureus [1], > 3.25 µg/mL; against Staphylococcus aureus [2], > 6.25 µg/mL. Also, the figures for the concentration for half-maximal inhibition (IC50) in data set [3], in data set [4] and in data set [5] were 1.9 µM, 0.5 µM and > 1 µM, respectively.

A word on the MIC: it is the lowest concentration that inhibits growth of the organism. A lower MIC goes with a more susceptible organism. For orientation: IC50 means the concentration needed to halve the response being measured.
